Source: ChEMBL document CHEMBL5291721, “A preclinical secondary pharmacology resource illuminates target-adverse drug reaction associations of marketed drugs” (Nat Commun, 2023)

Experiments:
[1] = molecular target: T1, Alpha-2A adrenergic receptor (Homo sapiens, UniProt P08913); assay type: functional, cell-based
T1 sequence (P08913 whole entry): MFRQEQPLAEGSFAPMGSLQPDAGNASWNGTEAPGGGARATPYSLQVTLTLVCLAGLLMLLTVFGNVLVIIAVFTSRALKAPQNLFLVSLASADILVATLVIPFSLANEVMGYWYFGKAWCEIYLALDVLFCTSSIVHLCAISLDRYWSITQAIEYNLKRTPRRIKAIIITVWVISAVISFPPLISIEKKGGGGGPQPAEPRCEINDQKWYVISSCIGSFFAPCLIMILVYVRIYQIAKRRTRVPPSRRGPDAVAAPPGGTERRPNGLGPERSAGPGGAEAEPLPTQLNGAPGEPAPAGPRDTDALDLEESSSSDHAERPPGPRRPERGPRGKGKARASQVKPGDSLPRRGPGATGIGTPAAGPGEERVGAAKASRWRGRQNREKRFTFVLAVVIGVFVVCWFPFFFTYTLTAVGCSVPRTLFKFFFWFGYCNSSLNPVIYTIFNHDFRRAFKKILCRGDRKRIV

[2] = molecular target: T2, Cholecystokinin receptor type A (Homo sapiens, UniProt P32238)
T2 sequence (P32238 whole entry): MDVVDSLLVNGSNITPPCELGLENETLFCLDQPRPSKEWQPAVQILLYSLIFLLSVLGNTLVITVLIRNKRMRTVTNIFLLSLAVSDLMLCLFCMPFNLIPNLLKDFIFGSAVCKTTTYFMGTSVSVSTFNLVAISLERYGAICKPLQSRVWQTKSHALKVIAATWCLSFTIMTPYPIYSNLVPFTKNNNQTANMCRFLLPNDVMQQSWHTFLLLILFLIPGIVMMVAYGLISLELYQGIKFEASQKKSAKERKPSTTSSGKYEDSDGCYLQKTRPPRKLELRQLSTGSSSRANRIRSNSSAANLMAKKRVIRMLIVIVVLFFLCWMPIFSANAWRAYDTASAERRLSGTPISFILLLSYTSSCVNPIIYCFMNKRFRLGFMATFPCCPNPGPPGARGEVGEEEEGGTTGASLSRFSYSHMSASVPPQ

[3] = molecular target: Neuronal acetylcholine receptor subunit alpha-4 (Homo sapiens, UniProt P43681)
Neuronal acetylcholine receptor subunit alpha-4, sequence (P43681 whole entry): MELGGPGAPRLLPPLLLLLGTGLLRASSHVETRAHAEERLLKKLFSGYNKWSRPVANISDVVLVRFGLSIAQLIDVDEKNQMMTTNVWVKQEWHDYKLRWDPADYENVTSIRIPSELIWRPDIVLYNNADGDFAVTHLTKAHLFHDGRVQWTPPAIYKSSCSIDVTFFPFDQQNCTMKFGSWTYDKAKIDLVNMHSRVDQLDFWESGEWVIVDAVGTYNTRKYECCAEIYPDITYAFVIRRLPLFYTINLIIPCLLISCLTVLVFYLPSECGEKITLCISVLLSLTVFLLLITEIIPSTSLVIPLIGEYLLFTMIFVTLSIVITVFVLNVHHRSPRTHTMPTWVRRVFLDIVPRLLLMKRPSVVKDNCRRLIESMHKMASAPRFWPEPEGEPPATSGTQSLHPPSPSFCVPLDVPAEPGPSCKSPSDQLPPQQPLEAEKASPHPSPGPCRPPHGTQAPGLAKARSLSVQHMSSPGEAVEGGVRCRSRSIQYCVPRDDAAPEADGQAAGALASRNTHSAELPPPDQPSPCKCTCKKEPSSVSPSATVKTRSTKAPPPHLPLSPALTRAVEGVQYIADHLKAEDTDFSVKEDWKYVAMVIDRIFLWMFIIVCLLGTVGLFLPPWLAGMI

[4] = molecular target: Gamma-aminobutyric acid receptor subunit alpha-1 (Rattus norvegicus, UniProt P62813); assay type: functional
Gamma-aminobutyric acid receptor subunit alpha-1, sequence (P62813 whole entry): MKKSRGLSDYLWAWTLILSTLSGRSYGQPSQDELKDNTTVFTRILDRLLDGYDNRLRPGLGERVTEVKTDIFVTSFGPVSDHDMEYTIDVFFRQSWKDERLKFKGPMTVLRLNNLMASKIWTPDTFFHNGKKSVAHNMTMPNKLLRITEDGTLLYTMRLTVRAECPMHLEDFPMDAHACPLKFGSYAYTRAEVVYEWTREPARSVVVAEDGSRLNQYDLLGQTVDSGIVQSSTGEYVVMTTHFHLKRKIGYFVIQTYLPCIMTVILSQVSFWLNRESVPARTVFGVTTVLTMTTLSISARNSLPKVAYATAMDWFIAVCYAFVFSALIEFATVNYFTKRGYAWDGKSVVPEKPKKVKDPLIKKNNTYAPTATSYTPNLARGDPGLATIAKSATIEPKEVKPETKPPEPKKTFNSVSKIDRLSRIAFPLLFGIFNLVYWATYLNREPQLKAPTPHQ

[5] = molecular target: 5-hydroxytryptamine receptor 2B (Homo sapiens, UniProt P41595); assay type: functional, cell-based
5-hydroxytryptamine receptor 2B, sequence (P41595 whole entry): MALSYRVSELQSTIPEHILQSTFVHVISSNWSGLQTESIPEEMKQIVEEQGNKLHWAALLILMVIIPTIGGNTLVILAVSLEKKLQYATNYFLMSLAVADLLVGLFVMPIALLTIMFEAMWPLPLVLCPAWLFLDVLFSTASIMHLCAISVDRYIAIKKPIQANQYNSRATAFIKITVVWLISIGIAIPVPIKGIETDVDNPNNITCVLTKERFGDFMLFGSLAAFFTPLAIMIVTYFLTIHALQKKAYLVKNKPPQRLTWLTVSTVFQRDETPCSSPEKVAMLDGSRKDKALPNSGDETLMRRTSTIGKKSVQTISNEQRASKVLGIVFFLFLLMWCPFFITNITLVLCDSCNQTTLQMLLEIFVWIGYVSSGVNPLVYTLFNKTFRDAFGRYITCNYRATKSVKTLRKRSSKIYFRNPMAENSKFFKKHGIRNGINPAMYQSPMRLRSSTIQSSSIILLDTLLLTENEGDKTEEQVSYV

[6] = molecular target: T3, 5-hydroxytryptamine receptor 2C (Homo sapiens, UniProt P28335)
T3 sequence (P28335 whole entry): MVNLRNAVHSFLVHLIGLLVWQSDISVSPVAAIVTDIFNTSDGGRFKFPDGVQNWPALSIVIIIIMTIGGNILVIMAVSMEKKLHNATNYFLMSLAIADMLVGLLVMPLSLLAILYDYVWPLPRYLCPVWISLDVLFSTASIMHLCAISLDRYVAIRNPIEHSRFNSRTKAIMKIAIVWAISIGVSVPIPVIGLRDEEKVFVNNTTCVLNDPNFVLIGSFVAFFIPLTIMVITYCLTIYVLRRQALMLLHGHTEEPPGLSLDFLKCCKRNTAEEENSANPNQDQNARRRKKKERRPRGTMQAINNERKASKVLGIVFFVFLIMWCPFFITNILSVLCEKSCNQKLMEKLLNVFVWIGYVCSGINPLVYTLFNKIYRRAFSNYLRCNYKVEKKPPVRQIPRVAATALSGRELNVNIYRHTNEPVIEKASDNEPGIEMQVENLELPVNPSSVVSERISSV

[7] = molecular target: Motilin receptor (Homo sapiens, UniProt O43193)
Motilin receptor, sequence (O43193 whole entry): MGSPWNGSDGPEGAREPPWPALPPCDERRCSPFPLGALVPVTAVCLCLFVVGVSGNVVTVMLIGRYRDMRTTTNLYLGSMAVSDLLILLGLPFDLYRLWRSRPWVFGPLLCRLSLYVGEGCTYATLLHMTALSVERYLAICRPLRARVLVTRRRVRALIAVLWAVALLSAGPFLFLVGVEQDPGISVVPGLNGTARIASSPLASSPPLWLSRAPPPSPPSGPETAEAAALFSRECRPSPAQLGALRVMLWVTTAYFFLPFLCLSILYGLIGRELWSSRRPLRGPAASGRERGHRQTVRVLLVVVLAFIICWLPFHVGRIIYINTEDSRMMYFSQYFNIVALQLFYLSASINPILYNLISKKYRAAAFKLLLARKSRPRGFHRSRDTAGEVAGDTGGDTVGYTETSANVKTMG

[8] = molecular target: Delta-type opioid receptor (Homo sapiens, UniProt P41143)
Delta-type opioid receptor, sequence (P41143 whole entry): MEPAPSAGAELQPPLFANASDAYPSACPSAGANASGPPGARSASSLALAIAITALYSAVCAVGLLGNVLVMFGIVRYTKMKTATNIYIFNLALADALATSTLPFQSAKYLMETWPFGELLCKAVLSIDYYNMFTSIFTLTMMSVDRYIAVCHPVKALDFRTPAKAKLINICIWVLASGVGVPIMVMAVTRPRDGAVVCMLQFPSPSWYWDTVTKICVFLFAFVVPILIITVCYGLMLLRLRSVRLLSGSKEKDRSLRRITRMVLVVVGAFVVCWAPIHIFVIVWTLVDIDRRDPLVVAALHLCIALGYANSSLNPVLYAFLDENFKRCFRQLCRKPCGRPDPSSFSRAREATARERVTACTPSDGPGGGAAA

[9] = molecular target: T4, Prostaglandin G/H synthase 1 (Rattus norvegicus, UniProt Q63921); assay type: functional
T4 sequence (Q63921 whole entry): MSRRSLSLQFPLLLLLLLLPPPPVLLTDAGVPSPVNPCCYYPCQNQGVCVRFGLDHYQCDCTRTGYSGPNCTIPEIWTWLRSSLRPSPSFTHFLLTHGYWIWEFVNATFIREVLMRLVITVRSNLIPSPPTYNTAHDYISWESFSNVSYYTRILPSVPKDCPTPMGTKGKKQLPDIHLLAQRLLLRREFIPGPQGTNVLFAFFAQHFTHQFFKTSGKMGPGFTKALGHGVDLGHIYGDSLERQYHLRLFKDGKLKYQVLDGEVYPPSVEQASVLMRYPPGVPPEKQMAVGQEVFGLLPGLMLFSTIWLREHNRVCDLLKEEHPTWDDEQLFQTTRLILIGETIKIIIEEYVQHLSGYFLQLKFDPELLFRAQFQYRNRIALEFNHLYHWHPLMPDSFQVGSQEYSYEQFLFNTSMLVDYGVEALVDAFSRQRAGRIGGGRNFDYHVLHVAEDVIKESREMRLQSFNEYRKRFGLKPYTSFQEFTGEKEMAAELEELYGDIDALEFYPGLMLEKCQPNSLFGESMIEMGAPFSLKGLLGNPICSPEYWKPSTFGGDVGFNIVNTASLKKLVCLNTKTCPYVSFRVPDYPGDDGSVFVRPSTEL

[10] = molecular target: Sodium-dependent noradrenaline transporter (Homo sapiens, UniProt P23975)
Sodium-dependent noradrenaline transporter, sequence (P23975 whole entry): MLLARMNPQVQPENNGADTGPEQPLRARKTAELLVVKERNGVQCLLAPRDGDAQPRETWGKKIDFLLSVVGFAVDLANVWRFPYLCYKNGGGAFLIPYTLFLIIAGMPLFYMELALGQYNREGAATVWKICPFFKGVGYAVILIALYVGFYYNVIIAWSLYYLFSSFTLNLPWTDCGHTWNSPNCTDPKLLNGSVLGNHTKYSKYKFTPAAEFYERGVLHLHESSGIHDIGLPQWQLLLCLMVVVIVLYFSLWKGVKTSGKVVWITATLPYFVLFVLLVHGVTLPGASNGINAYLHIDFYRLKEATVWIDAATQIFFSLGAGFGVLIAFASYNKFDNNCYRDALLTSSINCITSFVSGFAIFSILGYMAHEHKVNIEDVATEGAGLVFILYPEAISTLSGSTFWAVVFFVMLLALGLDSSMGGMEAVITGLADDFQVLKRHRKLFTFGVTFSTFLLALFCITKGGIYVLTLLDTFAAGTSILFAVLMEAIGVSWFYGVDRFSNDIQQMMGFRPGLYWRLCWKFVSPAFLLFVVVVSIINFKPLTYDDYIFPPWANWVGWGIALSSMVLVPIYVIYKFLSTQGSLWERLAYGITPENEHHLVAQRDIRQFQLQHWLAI

[11] = molecular target: T5, Amine oxidase [flavin-containing] A (Homo sapiens, UniProt P21397); assay type: functional
T5 sequence (P21397 whole entry): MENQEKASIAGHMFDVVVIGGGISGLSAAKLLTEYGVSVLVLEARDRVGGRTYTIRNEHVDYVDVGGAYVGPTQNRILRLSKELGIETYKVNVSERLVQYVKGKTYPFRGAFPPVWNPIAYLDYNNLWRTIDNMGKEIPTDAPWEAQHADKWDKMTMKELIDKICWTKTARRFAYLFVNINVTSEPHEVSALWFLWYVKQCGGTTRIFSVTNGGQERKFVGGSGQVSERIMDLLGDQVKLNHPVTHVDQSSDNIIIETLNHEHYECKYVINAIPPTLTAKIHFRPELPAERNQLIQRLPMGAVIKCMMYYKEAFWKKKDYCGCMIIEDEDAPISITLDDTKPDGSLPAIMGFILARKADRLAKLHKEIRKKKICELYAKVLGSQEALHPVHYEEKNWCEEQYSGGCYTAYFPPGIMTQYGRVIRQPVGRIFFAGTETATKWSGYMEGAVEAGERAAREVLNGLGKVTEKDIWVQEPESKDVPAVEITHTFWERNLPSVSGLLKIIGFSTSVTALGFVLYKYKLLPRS

[12] = molecular target: cGMP-inhibited 3',5'-cyclic phosphodiesterase 3A (Homo sapiens, UniProt Q14432); assay type: functional
cGMP-inhibited 3',5'-cyclic phosphodiesterase 3A, sequence (Q14432 whole entry): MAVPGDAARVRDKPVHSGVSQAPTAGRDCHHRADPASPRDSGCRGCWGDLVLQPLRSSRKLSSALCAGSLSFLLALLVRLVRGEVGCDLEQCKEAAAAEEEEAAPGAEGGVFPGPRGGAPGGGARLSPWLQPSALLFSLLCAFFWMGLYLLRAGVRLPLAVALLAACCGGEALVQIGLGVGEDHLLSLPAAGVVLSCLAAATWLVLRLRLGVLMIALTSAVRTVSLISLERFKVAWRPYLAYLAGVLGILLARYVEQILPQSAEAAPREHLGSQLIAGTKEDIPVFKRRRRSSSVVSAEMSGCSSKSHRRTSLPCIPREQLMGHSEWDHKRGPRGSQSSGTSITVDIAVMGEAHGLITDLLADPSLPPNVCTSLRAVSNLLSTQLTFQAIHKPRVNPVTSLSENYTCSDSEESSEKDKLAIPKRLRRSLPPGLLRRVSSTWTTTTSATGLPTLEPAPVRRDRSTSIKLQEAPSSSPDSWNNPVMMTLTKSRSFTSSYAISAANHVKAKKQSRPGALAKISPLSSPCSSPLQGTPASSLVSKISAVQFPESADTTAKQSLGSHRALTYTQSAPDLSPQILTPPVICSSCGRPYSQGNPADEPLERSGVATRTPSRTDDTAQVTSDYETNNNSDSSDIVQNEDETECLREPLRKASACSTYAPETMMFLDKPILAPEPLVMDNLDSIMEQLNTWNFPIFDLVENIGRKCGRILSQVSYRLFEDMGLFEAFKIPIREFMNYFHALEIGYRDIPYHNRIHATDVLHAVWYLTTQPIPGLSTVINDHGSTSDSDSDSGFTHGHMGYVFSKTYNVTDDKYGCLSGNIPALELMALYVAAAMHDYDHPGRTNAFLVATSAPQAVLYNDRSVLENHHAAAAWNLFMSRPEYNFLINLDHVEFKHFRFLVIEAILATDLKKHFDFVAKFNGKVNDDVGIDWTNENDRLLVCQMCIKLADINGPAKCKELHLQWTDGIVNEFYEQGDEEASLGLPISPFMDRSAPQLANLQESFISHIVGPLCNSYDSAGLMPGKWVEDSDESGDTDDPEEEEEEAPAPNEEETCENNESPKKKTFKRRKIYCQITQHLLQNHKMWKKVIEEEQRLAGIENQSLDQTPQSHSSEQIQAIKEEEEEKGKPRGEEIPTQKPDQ
Also: assay procedure not described here.

Compound | AC50 [1] | AC50 [2] | AC50 [3] | AC50 [4] | AC50 [5] | AC50 [6] | AC50 [7] | AC50 [8] | AC50 [9] | AC50 [10] | AC50 [11] | AC50 [12]
CNC1(C)C2CCC(C2)C1(C)C (configuration not stated) [MECAMYLAMINE] | > 10 µM | > 10 µM | > 10 µM | > 10 µM | > 10 µM | > 30 µM | > 10 µM | > 30 µM | > 10 µM | > 10 µM | > 10 µM | > 30 µM
Cc1c(C)c2c(c(C)c1O)CCC(C)(COc1ccc(CC3SC(=O)NC3=O)cc1)O2 (configuration not stated) [TROGLITAZONE] | > 30 µM | > 30 µM | > 30 µM | > 30 µM | 2 µM | > 30 µM | > 30 µM | > 30 µM | 22.9 µM | 15 µM | > 30 µM | 6.19 µM
C[C@H](Cn1cnc2c(N)ncnc21)OCP(=O)(O)O [TENOFOVIR ANHYDROUS] | > 30 µM | > 30 µM | > 30 µM | > 30 µM | > 30 µM | > 30 µM | > 30 µM | > 10 µM | > 30 µM | > 30 µM | > 30 µM | > 30 µM
NCCCCCC(=O)O [AMINOCAPROIC ACID] | > 10 µM | > 10 µM | > 10 µM | > 10 µM | > 10 µM | > 30 µM | > 10 µM | > 30 µM | > 10 µM | 20.4 µM | > 10 µM | > 30 µM
Cn1cnc2c(F)c(Nc3ccc(Br)cc3F)c(C(=O)NOCCO)cc21 [BINIMETINIB] | > 30 µM | > 30 µM | > 30 µM | > 30 µM | > 30 µM | > 30 µM | > 30 µM | > 30 µM | > 30 µM | > 30 µM | > 30 µM | > 30 µM
Nc1nnc(-c2cccc(Cl)c2Cl)c(N)n1 [LAMOTRIGINE] | > 10 µM | > 30 µM | > 10 µM | > 10 µM | > 10 µM | > 30 µM | > 10 µM | > 30 µM | > 30 µM | > 10 µM | 16 µM | 2.1 µM

Now from value to compound:

AC50 [1] | AC50 [2] | AC50 [3] | AC50 [4] | AC50 [5] | AC50 [6] | AC50 [7] | AC50 [8] | AC50 [9] | AC50 [10] | AC50 [11] | AC50 [12] | Compound
> 30 µM | > 30 µM | > 30 µM | > 30 µM | > 30 µM | > 30 µM | > 30 µM | > 30 µM | > 30 µM | > 30 µM | > 30 µM | > 30 µM | CN(C)CCc1c[nH]c2ccc(CS(=O)(=O)N3CCCC3)cc12 [ALMOTRIPTAN]
> 30 µM | > 30 µM | > 30 µM | > 30 µM | > 10 µM | > 30 µM | > 30 µM | > 30 µM | > 30 µM | > 30 µM | > 30 µM | > 30 µM | CC(C)(CO)c1cc2cc(NC(=O)C3(c4ccc5c(c4)OC(F)(F)O5)CC3)c(F)cc2n1C[C@@H](O)CO [TEZACAFTOR]
> 30 µM | > 30 µM | > 30 µM | 19 µM | > 30 µM | 27 µM | 16.8 µM | 26 µM | 15.8 µM | > 30 µM | > 30 µM | > 30 µM | CCN(CC)CCn1c(=O)c(Cc2ccc(OC)cc2)nc2ccccc21 [CAROVERINE]
> 30 µM | > 30 µM | > 30 µM | > 30 µM | > 30 µM | > 30 µM | > 30 µM | > 30 µM | > 30 µM | > 30 µM | > 30 µM | > 30 µM | COC(=O)CCc1ccc(OCC(O)CNC(C)C)cc1 (configuration not stated) [ESMOLOL]
> 10 µM | > 30 µM | > 10 µM | > 10 µM | 2.2 µM | > 30 µM | > 10 µM | > 30 µM | > 30 µM | > 10 µM | > 10 µM | > 30 µM | OCCOCCN1CCN(C(c2ccccc2)c2ccc(Cl)cc2)CC1 (configuration not stated) [HYDROXYZINE]
